# Test results from US6455075B1, “Method for control of insects on plants and plant tissue” (priority 1996, dated 2002).
# Experiments:
# [1] = tested on: Botrytis and Black Spot Mold; conditions: flowers wetted with dilute solution before wrapping
# Experimental: In the cut flower industry, the moist flowers are wrapped in plastic prior to placement in the shipping boxes for transit. Ice is added to the boxes in many cases to help keep the flowers fresh during transit. This closed, moist environment is very conducive to Botrytis and Black Spot Mold.
# plant pathogens = conditions: dilute solution
# fungus gnats = conditions: greenhouse treatment; probably due to removal of food source
# Experimental: (§1) To insure objectivity, the greenhouses selected were not all commonly owned and many varieties of roses were included in the testing. […] The effectiveness of the spray was measured by microbial culture of the surfaces of the greenhouse and the leaf surfaces of the treated and untreated plants. […] It is well known that these fungi are airborne.
# Roses = conditions: after six weeks of observation
# Experimental: as §1
# [2] = tested on: mealy bug, white fly, aphids, spider mites, and thrip
# Experimental: as §1
# [3] = tested on: total mold count, including Botrytis and those molds causing Powdery Mildew
# Experimental: as §1
# living plants = conditions: dilute solution
# Botrytis cinerea = conditions: 0.05% Hydrogen Peroxide mist during entire propagation; one mature leaf from each of 10 cuttings, averaged
# Experimental: In this study 500 zonal geranium cuttings were treated with a mist during the entire course of their propagation. One mature leaf from each of 10 terminal stem cuttings following treatment were sampled and the data was averaged.
# [4] = tested on: root rot and other infectious pathogens; conditions: cuttings dipped in 0.5% hydrogen peroxide, dilute solution in misting system
# [5] = tested on: various species of household plants; conditions: throughout the three week treatment period, most plants in bloom
# Experimental: (§2) Long and 25 ft. Wide, was filled with various species of household plants, of which most had infestations of some type of insect pest. (Table 2) All other treatments were stopped two weeks prior to treatment with the solution of the present invention. Yellow sticky cards were placed throughout the greenhouse for three days prior to treatment and then were counted for the various species of insects present. The greenhouse was then treated with 12 gallons of a 1:50 dilution of the solution of the present invention using a Dram™ hydraulic sprayer. The house was sprayed on three day intervals for a period of three weeks. Sticky cards were placed in selected areas through out the greenhouse during the three week period.
# THRIPS = tested on: THRIPS
# Experimental: as §2
# insect populations = tested on: insect populations
# Experimental: as §2
# [6] = tested on: black mold growing on the excrement of the aphids; conditions: leaves of New Guinea Impatiens
smiles,measurement,setting,value
OO [hydrogen peroxide],appearance of detrimental fungi,[1],prevented and or delayed the appearance of the detrimental fungi
same,plant pathogens present on the surfaces,plant pathogens,either totally eradicated or substantially reduced
same,effect on fungus gnats,fungus gnats,eliminated
same,adverse effects upon the plants,Roses,No adverse effects
same,effect upon insect pests present in the greenhouse,[2]; field trials,lethal effect
same,effect on larval stages of insect pests,[2]; greenhouse treatment of the preceding example,destruction of the larval stages
same,total mold count,[3]; 1 % solution sprayed at least four times,killed or seriously reduced the total mold count
same,treated plants and surfaces free of total fungi (microbial culture),[3]; after the first application of 1 % hydrogen peroxide,~100%
same,recontamination by fungi (microbial culture),[3]; daily applications of 500 PPM over several weeks,no recontamination by fungi occurred
same,adverse effects on the plants,living plants,no adverse affects
same,MICRO-ORGANISMS/LEAF,Botrytis cinerea,38
same,cutting loss,[4],virtually eliminated cutting loss
same,phytotoxicity or other detrimental effect to the plants,[5],no evidence of phytotoxicity
same,reduction of Thrips,"THRIPS; 10 days and post 5 treatments, seven day card exposure",greatly reduced
same,average Thrips present per card,"THRIPS; after subsequent treatments, 72 hour exposure time",7-10
same,reduction of insect populations,insect populations; 10 days and post 5 treatments,marked reduction of insect populations
same,reduction in insect populations,"insect populations; after one treatment, 72 hr card exposure",did not indicate any significant reduction
same,effect on black mold,[6],quickly neutralized the mold
